Molecular target: T1, PcCel45A (Phanerodontia chrysosporium, UniProt B3Y002)
T1 construct: gene egv; mature single catalytic domain; pEXPYR+ vector, secreted from Aspergillus nidulans A773 (Results text says A. niger)
Experiment: X-ray crystallography of the complex
Assay type: binding
Conditions: bound at +1 and +2 subsites of the active-site groove; crystals in ammonium sulfate, Hepes pH 7.5, MPD

T1 sequence (B3Y002 entry or part of it): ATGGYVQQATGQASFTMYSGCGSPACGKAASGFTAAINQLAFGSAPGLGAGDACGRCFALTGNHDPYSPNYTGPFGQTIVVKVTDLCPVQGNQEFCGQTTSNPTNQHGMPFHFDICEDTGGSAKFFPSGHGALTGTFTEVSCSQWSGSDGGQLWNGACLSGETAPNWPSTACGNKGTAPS

OC[C@H]1O[C@@H](O[C@H]2[C@H](O)[C@@H](O)C(O)O[C@@H]2CO)[C@H](O)[C@@H](O)[C@@H]1O (stereo partly shown) [cellobiose]
X-ray crystallography of the complex: The structure of the PcCel45A-cellobiose complex revealed a single cellobiose molecule within the active-site groove

— article PMC5829257, “Structure, computational and biochemical analysis of PcCel45A endoglucanase from Phanerochaete chrysosporium and catalytic mechanisms of GH45 subfamily C members” (Scientific Reports, 2018)
